Measured values from patent US20150011566A1, “N-PHENYLPIPERAZINE DERIVATIVES THAT ARE ANTAGONISTS OF A1A, A1D ADRENOCEPTORS AND 5-HT1A RECEPTORS FOR THE TREATMENT OF BENIGN PROSTATE HYPERPLASIA, PHARMACEUTICAL COMPOSITIONS CONTAINING THE SAME” (UNIVERSIDADE FEDERAL DO RIO DE JANEIRO-UFRJ, priority 2012, published 2015).
Read-outs that look alike come from different tables or passages of the source.

What was measured:
5-HT2A receptors = target: T1, 5-HT2A receptors (Rattus norvegicus, UniProt P14842); test: [3H]-ketanserin binding to 5-HT2A receptors (rat cortex membranes)
T1 construct: from tissue; host or cells: rat cortex membranes
Description: Membrane preparations of rat cortex as described previously in the literature were performed. The organs were homogenized in a Potter with the aid of a motor unit (Fisatom) and Teflon piston in the proportion of 20 parts of 50 mM Tris HCl (pH 7.4 at 4° C.) for one piece of material, three times for 30 seconds each time, at intervals the solution was allowed to stand on ice for 1 minute.
Then it was performed a centrifugation at 900×g for 10 minutes at 4° C. It was obtained a […] which was resuspended in solution cold 50 mM Tris-HCl (pH 7.4) and the same procedure was performed once more. The supernatant was then centrifuged at 48,000×g for 10 minutes at 4° C. yielding a pellet which was resuspended at a ratio of 20 parts of 50 mM Tris HCl (pH 7.4 at 4° C.) for one piece of material, and incubated at 37° C. for 10 minutes in order to remove the endogenous neurotransmitters. Finally, centrifugation two times more at 48,000×g was performed for 10 minutes at 4° C., and then the final pellet was resuspended in a solution of 50 mM Tris-HCl (pH 7.4).
The binding assays for 5-HT2A receptors were performed as described in the literature. […] (solvent for dilution of the LDT's), to determine the total binding, or 50 μL non-radioactive ketanserin at 10 μM for the determination of nonspecific binding (final volume of 500 μL). Assays were performed in triplicate.
(§1) After the incubation period, the reaction was stopped by adding 4 ml of ice-cold solution containing 5 mM Tris (pH 7.4), followed by vacuum filtration on glass fiber filter (GMF 3, Filtrak®) previously soaked with solution 0.5% polyethylenoimine The filters were washed three times with 4 mL of ice-cold solution containing 5 mM Tris (pH 7.4) under vacuum to remove all free radioligand. Then the filters were dried and placed in vials containing 5 ml scintillation fluid (4% PPO, 0.1% POPOP w/v in toluene). The radioactivity retained on the filters was then determined in a liquid scintillation counter (Packard Tri-Carb 1600 TR). […] To these receptors were also determined CI50 and Ki parameters.

α1B adrenoceptors = target: T2, α1B adrenoceptors (Rattus norvegicus, UniProt P15823); test: Binding of [3H]-prazosin to α1B adrenoceptors (rat liver membranes); conditions: for affinity range for α1B adrenoceptor: in words
T2 construct: from tissue; host or cells: rat liver membranes
T2 sequence (P15823 1-515): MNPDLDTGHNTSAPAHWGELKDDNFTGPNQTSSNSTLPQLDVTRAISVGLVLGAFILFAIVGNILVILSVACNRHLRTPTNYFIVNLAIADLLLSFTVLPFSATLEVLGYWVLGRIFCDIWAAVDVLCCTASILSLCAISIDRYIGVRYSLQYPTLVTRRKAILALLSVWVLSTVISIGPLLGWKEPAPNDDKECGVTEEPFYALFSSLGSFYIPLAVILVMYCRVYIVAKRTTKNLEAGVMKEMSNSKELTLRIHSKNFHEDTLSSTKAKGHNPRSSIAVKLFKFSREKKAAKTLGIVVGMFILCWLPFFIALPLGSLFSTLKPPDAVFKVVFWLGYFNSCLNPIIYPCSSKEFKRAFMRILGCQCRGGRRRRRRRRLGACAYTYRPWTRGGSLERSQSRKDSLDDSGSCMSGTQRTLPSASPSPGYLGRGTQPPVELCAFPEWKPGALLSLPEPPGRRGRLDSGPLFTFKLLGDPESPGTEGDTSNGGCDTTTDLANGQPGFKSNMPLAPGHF
Description: Following the protocol described previously in the literature membrane preparations from rat liver homogenates were obtained. Such membrane preparations are enriched in the adrenoceptor subtype α1B. The tissues obtained as described above (4 Rat livers corresponding to ˜30 g) were thawed and homogenized perforated similarly performed for rabbit liver. The homogenate obtained was filtered through four layers of gauze and then subjected to centrifugation 5,000×g for 20 minutes at 4° C., yielding a supernatant which was subsequently ultracentrifuged at 100,000×g for 60 minutes at 4° C., obtaining a pellet. This pellet was resuspended in buffer free of NaCl and subjected to a further […] under the same conditions.
Binding assays were standardized for α1B adrenoceptors in the same way adrenoceptor binding assays for α1A according to the literature, i.e. saturation and competition assays were performed on membrane preparations from rat liver, in this case using […] protein per tube contained […] suspension, in addition to various concentrations of LDT's (10^−9-10^−6 M).

5-HT1A receptors = target: T3, 5-HT1A receptors (Rattus norvegicus, UniProt P19327); test: Binding of [3H]-8-OH-DPAT to 5-HT1A receptors (rat hippocampus membranes)
T3 construct: Intrinsic Activity at Native 5-HT1A Receptors; from tissue; host or cells: rat hippocampus membranes
T3 sequence (P19327 1-422): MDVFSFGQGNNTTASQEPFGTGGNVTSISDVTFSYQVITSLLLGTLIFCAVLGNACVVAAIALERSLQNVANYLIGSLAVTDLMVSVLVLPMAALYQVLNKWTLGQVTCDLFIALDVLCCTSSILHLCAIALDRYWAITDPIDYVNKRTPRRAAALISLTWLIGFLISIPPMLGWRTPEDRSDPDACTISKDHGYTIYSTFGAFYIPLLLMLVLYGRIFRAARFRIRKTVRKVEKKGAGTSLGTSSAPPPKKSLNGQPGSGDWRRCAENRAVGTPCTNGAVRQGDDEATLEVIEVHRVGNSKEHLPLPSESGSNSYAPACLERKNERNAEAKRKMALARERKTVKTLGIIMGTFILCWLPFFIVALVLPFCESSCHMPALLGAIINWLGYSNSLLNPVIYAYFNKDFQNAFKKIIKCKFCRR
Description: Membrane preparations of rat hippocampus according to previously described by HALL et al (1985) and PEROUTKA (1986) were performed. The homogenization and centrifugation steps were performed identically to that described above for receptors α2A and 5-HT2A receptors.
The binding assays for the 5-HT1A receptors were performed as described previously in the literature and previously standardized in the laboratory through saturation experiments. […] (solvent for dilution of LDT's) for the determination of total binding, or 50 μL non-radioative serotonin at 10 μM to determine the non-specific binding (final volume of 500 μL). Assays were performed in triplicate. […] Assays were performed in triplicate.
as §1, with “polyethylenoimine.” for “polyethylenoimine”, “(composition: 4%” for “(4%”, “w/p” for “w/v”, “For” for “To”, “the […]” for “CI50”

[1] = Table 11, Cheng-Prusoff, read-out: Ki
[2] = Table 5, Cheng-Prusoff, read-out: α1B Ki
[3] = Table 8, Cheng-Prusoff, read-out: Ki
[4] = Table 9, agonist radioligand [3H] 8-OH-DPAT, read-out: Ki high
[5] = Ki high (nM), Table 13, agonist radioligand [3H] 8-OH-DPAT
[6] = Table 4, Cheng-Prusoff, read-out: Ki
[7] = Table 4, read-out: log CI50 ± EPM (converted)
[8] = Table 10, Cheng-Prusoff, read-out: Ki
[9] = Table 10, read-out: log CI50 ± EPM (converted)

T1 sequence (P14842 whole entry): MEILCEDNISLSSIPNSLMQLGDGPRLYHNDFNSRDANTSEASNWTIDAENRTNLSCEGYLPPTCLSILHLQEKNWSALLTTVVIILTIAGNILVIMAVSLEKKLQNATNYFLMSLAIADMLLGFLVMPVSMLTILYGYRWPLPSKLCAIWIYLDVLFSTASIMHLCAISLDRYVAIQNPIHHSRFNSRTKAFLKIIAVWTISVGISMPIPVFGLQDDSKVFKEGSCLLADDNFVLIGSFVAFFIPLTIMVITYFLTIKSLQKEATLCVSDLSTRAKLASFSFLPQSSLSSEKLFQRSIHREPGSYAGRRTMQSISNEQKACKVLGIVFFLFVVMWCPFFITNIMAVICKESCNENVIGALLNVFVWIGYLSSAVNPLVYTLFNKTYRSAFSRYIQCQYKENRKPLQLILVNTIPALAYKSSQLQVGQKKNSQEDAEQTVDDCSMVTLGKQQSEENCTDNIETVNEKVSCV

Compound | log IC50 (M) (5-HT2A receptors; Table 11) | Ki (5-HT2A receptors; [1]) [nM] | α1B log IC50 (M) (α1B adrenoceptors; Table 5) | Ki (α1B adrenoceptors; [2]) [nM] | log IC50 (M) (5-HT1A receptors; Table 8) | Ki (5-HT1A receptors; [3]) [M] | IC50 (5-HT1A receptors) [nM] | further results
CCCN1CCN(c2ccccc2OC)CC1 [LDT 63] | −4.86 ± 0.13 M | 8850 | −6.22 ± 0.05 | 511 | −6.37 ± 0.03 M | 1.91e-07 | – | –
CCCCCCCN1CCN(c2ccccc2OC)CC1 [LDT 67] | −5.53 ± 0.13b M | 1890 | −6.87 ± 0.10 | 113 | −7.42 ± 0.19b M | 1.8e-08 | – | Ki (5-HT1A receptors; [4]): 1.8e-08 M
COc1cccc(CCN2CCN(c3ccccc3OC)CC2)c1 [LDT 3] | – | – | – | – | – | – | 2.75 | IC50 (5-HT2A receptors): 70.8 nM; Ki (5-HT2A receptors): 45.2 nM; IC50 (α1B adrenoceptors): 95.5 nM; Ki (α1B adrenoceptors): 73.7 nM; Ki (5-HT1A receptors; KI (M), Table 7, Cheng-Prusoff): 1.13e-09 M; Ki (5-HT1A receptors; [5]): 1.79e-09 M
COc1ccc(CCN2CCN(c3ccccc3OC)CC2)cc1OC [LDT 5] | – | – | – | – | – | – | 6.17 | IC50 (5-HT2A receptors): 389 nM; Ki (5-HT2A receptors): 248 nM; Ki (α1B adrenoceptors; [6]): 12.2 nM; IC50 (α1B adrenoceptors; [7]): 15.8 nM; Ki (5-HT1A receptors; KI (M), Table 7, Cheng-Prusoff): 2.54e-09 M; Ki (5-HT1A receptors; [5]): 3.89e-09 M
CCOc1ccccc1N1CCN(CC)CC1 [LDT 69] | −5.02 ± 0.06 M | 6120 | −6.53 ± 0.11 | 185 | −6.86 ± 0.30 M | 6.2e-08 | – | –
CCCCCCN1CCN(c2ccccc2OC)CC1 [LDT 66] | −5.57 ± 0.16b M | 1720 | −6.51 ± 0.18 | 221 | −7.93 ± 0.20a M | 5e-09 | – | Ki (5-HT1A receptors; [4]): 5e-09 M
CCOc1ccccc1N1CCN(CCc2ccc3c(c2)OCO3)CC1 [LDT 8] | – | – | – | – | – | – | 0.0575 | Ki (5-HT2A receptors; [8]): 248 nM; IC50 (5-HT2A receptors; [9]): 389 nM; IC50 (α1B adrenoceptors): 11.7 nM; Ki (α1B adrenoceptors): 9.07 nM; affinity range for α1B adrenoceptor (α1B adrenoceptors): nanomolar range; Ki (5-HT1A receptors; [5]): 1.8e-11 M; Ki (5-HT1A receptors; Ki, text b157): 2.37e-11 M
CCCCCN1CCN(c2ccccc2OC)CC1 [LDT 65] | – | – | – | – | – | – | 38 | IC50 (5-HT2A receptors): 4570 nM; Ki (5-HT2A receptors): 2930 nM; IC50 (α1B adrenoceptors): 331 nM; Ki (α1B adrenoceptors): 277 nM; Ki (5-HT1A receptors; Ki (nM), Table 8, Cheng-Prusoff): 1.8e-08 M; Ki (5-HT1A receptors; Ki high (nM), Table 9, agonist radioligand [3H] 8-OH-DPAT): 1.8e-08 M
COc1ccccc1N1CCN(CCC2CCCCC2)CC1 [LDT 6] | – | – | – | – | – | – | – | Ki (5-HT2A receptors; [8]): 376 nM; IC50 (5-HT2A receptors; [9]): 589 nM; Ki (α1B adrenoceptors; [6]): 154 nM; IC50 (α1B adrenoceptors; [7]): 200 nM; affinity range for α1B adrenoceptor (α1B adrenoceptors): range μM; Ki (5-HT1A receptors; Table 7, Cheng-Prusoff, read-out: KI): 2.42e-10 M; IC50 (5-HT1A receptors; Table 7, read-out: log CI50 ± EPM (converted)): 0.589 nM
CCN1CCN(c2ccccc2)CC1 [LDT 39] | −5.16 ± 0.16 M | 4440 | −6.29 ± 0.10 | 425 | −5.93 ± 0.13 M | 5.2e-07 | – | –
CCCCCCCCN1CCN(c2ccccc2OC)CC1 [LDT 68] | −5.64 ± 0.08b M | 1470 | −6.69 ± 0.10 | 173 | −7.70 ± 0.30b M | 9e-09 | – | Ki (5-HT1A receptors; [4]): 9e-09 M
CCOc1ccccc1N1CCN(CCc2ccc(OC)c(OC)c2)CC1 [LDT 245] | – | – | – | – | – | – | 9.33 | Ki (5-HT1A receptors; KI (M), Table 7, Cheng-Prusoff): 3.8e-09 M
COc1ccccc1N1CCN(CCc2ccccc2)CC1 [LDT 2] | – | – | – | – | – | – | 3.02 | IC50 (5-HT2A receptors): 74.1 nM; Ki (5-HT2A receptors): 47.4 nM; IC50 (α1B adrenoceptors): 63.1 nM; Ki (α1B adrenoceptors): 48.7 nM; Ki (5-HT1A receptors; KI (M), Table 7, Cheng-Prusoff): 1.24e-09 M
CCN1CCN(c2ccccc2OC)CC1 [LDT 62] | −5.00 ± 0.06 M | 6410 | −6.27 ± 0.05 | 448 | −6.47 ± 0.10 M | 1.47e-07 | – | –
CCN1CCN(c2ccccc2O)CC1 [LDT 70] | −4.20 ± 0.03a M | 40400 | −6.07 ± 0.10 | 715 | −6.15 ± 0.08 M | 3.16e-07 | – | –
CCCCN1CCN(c2ccccc2OC)CC1 [LDT 64] | −5.06 ± 0.09 M | 5580 | −6.33 ± 0.16 | 393 | −6.72 ± 0.19 M | 8.4e-08 | – | –
